Reference: patent US20260355213A1, “TREATMENT OF INFECTIONS CAUSED BY INTRACELLULAR PATHOGENS” (Sheba Impact Ltd., priority 2023, published 2026)

Legend:
[1] = system: Listeria monocytogenes in HeLa cells; test: Intracellular Listeria monocytogenes infection of HeLa cells (CFU at 6 h p.i.); format: cell-based; conditions: 10 μM
Procedure: 4×10^5 HeLa cells were seeded in a 24-well tissue culture treated plate and incubated for 24 h at 37 °C under 5% CO2 atmosphere. On the next day, cells were incubated for 3 h with fresh DMEM supplemented with the PCM-0094889, PCM-0086166, PCM-0004846, PCM-0103431, PCM-0095494, PCM-0095293, PCM-0001349, and PCM-0095564 compounds at a final concentration of 10 μM. overnight cultures of Listeria monocytogenes that were grown statically at 37 °C were washed and resuspended in PBS. Cell infection at am MOI of 1:50 was conducted by adding 20 μl of Listeria suspension to each well, following by incubation at 37 °C under 5% CO2 atmosphere. 30 min p.i. the cells were washed with PBS and the medium was replaced with fresh medium supplemented with 10 μM of the tested compounds. One h p.i., gentamycin was added to each well at a final concentration of 50 μg/ml. At 6 h p.i., the cells were washed with PBS and lysed with 250 μl DDW at room temperature. The cell lysates were then diluted in PBS and plated on LB plates for CFU count. Intracellular Listeria infection was calculated as the number of intracellular bacteria recovered at 6 h p.i., divided by the infecting inoculum (CFUs). Listeria infection in the presence of the compounds is shown relative to the number of intracellular bacteria that were recovered from cells that were not treated with the compounds. The charts show the mean and standard error of the mean (SEM) of six biological repeats in two independent experiments, biological repeats.

caspase 3 = test: Caspase 3 activity in HeLa cells (Multiplex Activity Fluorometric Assay Kit); format: cell-based, human; conditions: HeLa cells infected with S. Typhimurium
Description: (§1) One of the possible mechanisms that could explain the activity of the compounds in inhibiting infection by different pathogens is inducing programed cell death in infected cells. To examine this experimentally, the present inventors have used Caspase-3, Caspase-8 and Caspase-9 Multiplex Activity Fluorometric Assay Kit (ab219915) to monitor caspase 3, caspase 8 and caspase 9 activity in HeLa cells infected with S. Typhimurium in the presence and absence of the compounds.

caspase 8 = test: Caspase 8 activity in HeLa cells (Multiplex Activity Fluorometric Assay Kit); format: cell-based, human; conditions: HeLa cells infected with S. Typhimurium
Description: as §1

Structure (SMILES) | inhibition of Listeria monocytogenes infection of HeLa cells [1] | caspase 3 activity in infected cells (caspase 3) | Caspase 8 activity in infected HeLa cells (caspase 8)
CN1CCN(CCOc2cc(OC3CCOCC3)c3c(Nc4c(Cl)ccc5c4OCO5)ncnc3c2)CC1 [Compound 1] | able to actively inhibit |  | 
CC(C)(C)NCC(O)COc1ccccc1C1CCCC1 (stereo not shown) [Compound 2] |  | significantly higher activity | 
COc1ccccc1C1(CCNCc2ccc(N(C)C)cc2)CCOC(C)(C)C1 (stereo not shown) [Compound 4] | able to actively inhibit | significantly higher activity | 
Cc1cc(Nc2ncnc3ccc(-c4ccc(CNCCS(C)(=O)=O)o4)cc23)ccc1Oc1ccn2ncnc2c1 [Compound 5] | able to actively inhibit | significantly higher activity | significantly higher activity
Cc1nc2c([nH]1)CCN(C(=O)c1ccc(NC(=O)c3ccccc3-c3ccccc3)cc1)c1ccccc1-2 [Compound 6] |  | significantly higher activity | 
O=C(Nc1ccno1)Nc1ccc(Cl)cc1Cl [Compound 7] | able to actively inhibit | significantly higher activity | significantly higher activity
CCc1cc2c(cc1CC)CC(NC[C@@H](O)c1ccc(O)c3[nH]c(=O)ccc13)C2 [Compound 8] | able to actively inhibit | significantly higher activity | 
